Measurements taken from publication PMC12750388, “Coumarin-1,2,3-Triazole Conjugates as Molecular Scaffolds for the Selective Induction of ROS-Driven Apoptosis in Cancer Cells in the Development of Pyruvate Kinase M2 Inhibitors” (ACS Omega, 2025).

Assays:
C57BL/6 mice = assay: Acute toxicity assay in vivo; conditions: 14 days
Protocol: All experiments were performed in accordance with the Brazilian guidelines and regulations. Dosing and analysis were performed according to 423 OECD guidelines and reviewed by ref. . An experimental approach was conducted using experimental groups (n = 3) in which each group received a single dose of 7f (100, 200, or 400 mg/kg). […] Control group animals received only 3% DMSO in PBS vehicle. Animals were examined every day, twice a day, for mortality and morbidity for 14 days, and all animals were sacrificed by cervical dislocation. The animals’ body weight and average food consumption were measured every 7 days. […]
increased rear arching, and mobility impairment. The necropsy included an examination of the external characteristics of the carcass; external body orifices; the abdominal, thoracic, and cranial cavities; organs/tissues of liver, thymus, right kidney, right testicle, heart, and lung.
Animals upon euthanasia had their organs evaluated for signs of toxicity or morphological […]
are presented: changes in body weight and food intake, signs of morbidity, possible mortality, and macroscopic alterations in collected organs. Each experimental group consisted of three C57BL/6 mice. The animals were monitored for 14 days, after which they were euthanized and necropsied. […]

PKM2 = molecular target: T1, PKM2 (Homo sapiens, UniProt P14618); assay: Quantification of ATP production from PKM2 reaction; format: biochemical; conditions: 1 × IC50 of 7f (55.13 μM)
T1 construct: purchased Sigma-Aldrich Co., St. Louis, MO, USA
Protocol: The measurement of PKM2 activity through ATP production was conducted to confirm whether the enzymatic inhibition observed in the previous assay was indeed due to PKM2. The master mix was prepared as indicated above. In a microtube containing the master mix prepared in the presence of 1 × IC50 7f, the control received the addition of 0.5 mM PEP for 3 min. Afterward, CellTiter-Glo reagent (Promega, Madison, WI, USA) was added as indicated by the manufacturer’s instructions, and the samples were kept shielded from light for 2 min. After the specified time, the sample was taken for reading in a Turner Designs TD 2020 luminometer (Turner Designs, Sunnyvale, CA, USA).

SCC-9 cell line = assay: MTT cell viability assay, SCC-9; format: cell-based, human
Protocol: The viability of SCC cell lines and primary human fibroblast cells was evaluated using the MTT assay to determine half maximal inhibitory concentration (IC50). Briefly, cells were grown in triplicate in 96-well plates (5 × 10^3 cells/well) until confluence. Then the medium was removed, fresh medium was added, and the cells were returned to the incubator in the presence of different compounds. DMSO at the same concentrations was used as a 100% cell viability control. After 48 h, cells were incubated with 5 mg/mL MTT reagent (3-(4,5-dimethyl-2-thiazolyl)-2,5-diphenyl-2-H-tetrazolium bromide) (Sigma-Aldrich Co., St. Louis, MO, USA) for 3.5 h. After that, formazan crystals were dissolved in MTT solvent solution (DMSO/methanol 1:1 v/v), and the absorbance at 560 nm was evaluated using an EPOCH microplate spectrophotometer (BioTek Instruments, Winooski, VT, USA) with the background absorbance at 670 nm subtracted. Each of the 12 compounds (7a–7l) was tested at six different concentrations, ranging from 6.25 to 200 μM in cancer and normal cell lines. Control (carboplatin) was tested at six different concentrations ranging from 25 μM to 800 μM in cancer cells and from 50 μM to 1600 μM in normal cells.
Half-maximal inhibitory concentration (IC50) values were obtained from the MTT assay of at least three independent replicates through nonlinear regression analysis using GraphPad Prism 5.0 software (Intuitive Software for Science, San Diego, CA, USA). Data were presented as means ± standard deviation (SD). A log dose–response curve (inhibitor vs response) using the least-squares method was used to determine the IC50 and SD from the data. The selectivity index (SI) was calculated as the ratio between the IC50 in normal cells and the IC50 in cancer cells, obtained by dividing the IC50 of normal cells by the IC50 of cancer cells.

4T1 = assay: MTT cell viability assay, 4T1; format: cell-based, murine
B16–F10 = assay: MTT cell viability assay, B16–F10; format: cell-based, murine
HCT116 = assay: MTT cell viability assay, HCT116; format: cell-based, human
SCC-9 cells [1] = assay: Cytotoxicity assay (cell death inhibition) with z-VAD-fmk and necrostatin-1; format: cell-based; conditions: SCC-9, 2 × IC50 7f, 24 h
Protocol: This investigation consists of pretreating cells with different death inhibitors. For this assay, day SCC-9 cells were seeded in a 96-well plate, and the next day, they were pretreated for 2 h with 20 μM z-VAD-fmk (ZVAD) (Promega Corporation, Madison, WI, USA) and 20 μM necrostatin-1 (Nec-1) (Sigma-Aldrich Co., St. Louis, MO, USA) alone or in combination. […] The plate was incubated for 24 h, and the result was determined through an MTT cell viability assay. The absorbance was measured with an EPOCH (BioTek Instruments, Winooski, VT, USA) spectrometer at 560 nm.

SCC-9 cells [2] = assay: Cell cycle and sub-G1 analysis by flow cytometry; format: cell-based, human
Protocol: The interference of 7f in the cell cycle (G1, […], and G2/M) and DNA fragmentation (sub-G1) was assessed by flow cytometry analysis using a Guava Muse Cell Analyzer (Cytek Biosciences, Fremont, CA, USA). DNA staining was conducted using a pH 7.6 propidium iodide buffer composed of 3.4 mM Trizma Hydrochloride (Sigma-Aldrich Co., St. Louis, MO, USA), 10 mM NaCl (Sigma-Aldrich Co., St. Louis, MO, USA), 0.1% (v/v) NP40 (Sigma-Aldrich Co., St. Louis, MO, USA), 700 U/L RNase, and 0.075 mM propidium iodide (Sigma-Aldrich Co., St. Louis, MO, USA). An amount of 1 × 10^5 and 5 × 10^5 SCC-9 cells were seeded in six-well plates for the treatment with the negative control (DMSO) and 7f, respectively. […] Cells were then trypsinized and stained with propidium iodide buffer. DNA content was analyzed by collecting 10,000 events in the aforementioned cytometer. Data were analyzed using Flowing Software (Turku Biosciences, Turku, Finland).

[3] = 100 mg/kg single intraperitoneal dose
[4] = 200 mg/kg single intraperitoneal dose
[5] = 400 mg/kg single intraperitoneal dose
[6] = versus human gingival fibroblast

T1 sequence (P14618 whole entry): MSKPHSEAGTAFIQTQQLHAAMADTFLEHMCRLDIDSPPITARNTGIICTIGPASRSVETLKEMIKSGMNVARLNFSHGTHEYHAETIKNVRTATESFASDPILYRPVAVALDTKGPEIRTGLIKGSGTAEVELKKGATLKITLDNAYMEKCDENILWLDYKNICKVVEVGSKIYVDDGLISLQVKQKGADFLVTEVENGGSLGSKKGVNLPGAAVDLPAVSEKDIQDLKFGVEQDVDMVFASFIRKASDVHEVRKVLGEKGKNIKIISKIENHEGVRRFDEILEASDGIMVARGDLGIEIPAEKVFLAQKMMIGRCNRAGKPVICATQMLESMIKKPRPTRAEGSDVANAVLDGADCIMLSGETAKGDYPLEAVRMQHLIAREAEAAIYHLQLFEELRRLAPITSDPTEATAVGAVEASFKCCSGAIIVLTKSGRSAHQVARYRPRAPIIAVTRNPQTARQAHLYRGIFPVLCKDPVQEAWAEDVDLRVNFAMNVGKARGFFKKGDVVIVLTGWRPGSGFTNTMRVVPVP

O=C1C=C(OCc2cn(CCCOc3cc(=O)oc4ccccc34)nn2)C(=O)c2ccccc21 [Compound 7f, 2-((1-(3-((2-Oxo-2H-chromen-4-yl)oxy)propyl)-1H-1,2,3-triazol-4-yl)methoxy)naphthalene-1,4-dione]
Change in body weight (C57BL/6 mice; [3]): Absent | Change in food consumption (C57BL/6 mice; [3]): Absent | Gross Necropsy (C57BL/6 mice; [3]): Absent | Morbidity (C57BL/6 mice; [3]): Absent | Change in body weight (C57BL/6 mice; [4]): Absent | Change in food consumption (C57BL/6 mice; [4]): Absent | Gross Necropsy (C57BL/6 mice; [4]): Absent | Morbidity (C57BL/6 mice; [4]): Absent | Change in body weight (C57BL/6 mice; [5]): Absent | Change in food consumption (C57BL/6 mice; [5]): Absent | Gross Necropsy (C57BL/6 mice; [5]): Absent | Morbidity (C57BL/6 mice; [5]): Absent | inhibition at 55.13 µM (PKM2): ~50% | IC50 (SCC-9 cell line; Homo sapiens, SCC-9, MTT, 48 h): 12.3 µM | SI SCC-9 (SCC-9 cell line; IC50 human gingival fibroblast / IC50 SCC-9): 1.85 | IC50 (4T1; Mus musculus, 4T1, MTT, murine breast cancer): 7.63 µM | SI 4T1 (4T1; [6]): 2.98 | IC50 (B16–F10; Mus musculus, B16-F10, MTT, murine melanoma): 4.93 µM | SI B16–F10 (B16–F10; [6]): 4.61 | IC50 (HCT116; HCT-116, MTT, human colon carcinoma): 6.72 µM | SI HCT116 (HCT116; [6]): 3.38 | cell death after pretreatment with 20 μM z-VAD-fmk (ZVAD) (SCC-9 cells [1]): significantly attenuated | cytotoxic effect after pretreatment with 20 μM necrostatin-1 (Nec-1), alone or with ZVAD (SCC-9 cells [1]): failed to reverse the cytotoxic effect | S-phase arrest versus control (DMSO) (SCC-9 cells [2]; SCC-9, 2 × IC50, 24 h): approximately twice as frequent as in the control group | cell cycle S population (SCC-9 cells [2]; SCC-9, 2 × IC50, 24 h (DMSO 12.33%)): 22.99% | cell cycle G2/M population (SCC-9 cells [2]; SCC-9, 2 × IC50, 24 h (DMSO 22.59%)): 14.45% | cell cycle G1 population (SCC-9 cells [2]; SCC-9, 2 × IC50, 24 h (DMSO 64.99%)): 62.31% | Sub-G1 population (DNA fragmentation) (SCC-9 cells [2]; SCC-9, 2 × IC50, 48 h (DMSO 5.04%)): 29.84% | increase in the sub-G1 population (SCC-9 cells [2]; SCC-9, 48 h, versus DMSO): 5 fold
